Measured values published in ChEMBL document CHEMBL6103662, “Thiosulfonate-Based Targeted Covalent Cruzipain Inhibitors with Enhanced Bioactivity Translation for Antichagasic Therapy” (ACS Med Chem Lett, 2025).
Active and inactive are the calls of the source. The calls are words filed in the database; no cut-off is given here.

Legend:
[1] = system: Trypanosoma cruzi; assay: Antitrypanosomal activity against Trypanosoma cruzi Tulahuen trypomastigotes expressing Escherichia coli beta-galactosidase infected in Vero cells at 1 uM measured after 72 hrs by beta-galactosidase based assay relative to control; type: functional
[2] = system: Trypanosoma cruzi; assay: Antitrypanosomal activity against Trypanosoma cruzi Tulahuen trypomastigotes expressing Escherichia coli beta-galactosidase infected in Vero cells at 50 uM measured after 72 hrs by beta-galactosidase based assay relative to control; type: functional
[3] = system: Trypanosoma cruzi; assay: Antitrypanosomal activity against Trypanosoma cruzi Tulahuen trypomastigotes expressing Escherichia coli beta-galactosidase infected in Vero cells at 10 uM measured after 72 hrs by beta-galactosidase based assay relative to control; type: functional
[4] = target: Cruzipain (Trypanosoma cruzi) (UniProt P25779); assay: Inhibition of recombinant Trypanosoma cruzi Cruzain at 100 uM using Z-FR-AMC as substrate preincubated for 10 mins followed by substrate addition and measured at 5 secs interval for 10 mins by fluorimetry relative to control; settings: time 20.0 min
[5] = target: cathepsin L (Homo sapiens, UniProt P07711); assay: Inhibition of recombinant human cathepsin L at 100 uM using Z-FR-AMC as substrate preincubated for 10 mins followed by substrate addition and measured for 20 mins by fluorimetry relative to control; settings: probe Z-FR-AMC, time 30 min
[6] = Cytotoxicity against African green monkey Vero cells assessed as cell viability at 50 uM measured after 96 hrs by Alamar blue assay relative to control; type: toxicity, cell-based; settings: chlorocebus sabaeus, read-out: Activity
[7] = target: Cruzipain (Trypanosoma cruzi) (UniProt P25779); assay: Inhibition of recombinant Trypanosoma cruzi Cruzain at 100 uM using Z-FR-AMC as substrate measured at 5 secs interval for 10 mins by fluorimetry relative to control
[8] = target: Cruzipain (Trypanosoma cruzi, UniProt P25779); assay: Inhibition of recombinant Trypanosoma cruzi Cruzain using Z-FR-AMC as substrate preincubated for 10 mins followed by substrate addition and measured at 5 secs interval for 10 mins by fluorimetry
[9] = system: Trypanosoma cruzi; assay: Antitrypanosomal activity against Trypanosoma cruzi Tulahuen trypomastigotes expressing Escherichia coli beta-galactosidase infected in Vero cells measured after 72 hrs by beta-galactosidase based assay; type: functional, organism-based
[10] = target: Cruzipain (Trypanosoma cruzi) (UniProt P25779); assay: Reversible inhibition of recombinant Trypanosoma cruzi Cruzain assessed as recovery of enzyme activity at 10 x IC50 using Z-FR-AMC as substrate preincubated for 30 mins followed by 100-fold dilution with assay buffer containing substrate and measured after 15 to 120 mins by fluorescence based jump dilution assay; settings: time 150.0 min
[11] = system: Trypanosoma cruzi; assay: Trypanocidal activity against Trypanosoma cruzi; type: functional, organism-based
[12] = target: Cruzipain (Trypanosoma cruzi) (UniProt P25779); assay: Inhibition of recombinant Trypanosoma cruzi Cruzain at 10 x IC50 using Z-FR-AMC as substrate preincubated for 30 mins followed by 100-fold dilution with assay buffer containing substrate and measured up to 15 mins by fluorescence based jump dilution assay; settings: time 45.0 min

cathepsin L, sequence (P07711 whole entry): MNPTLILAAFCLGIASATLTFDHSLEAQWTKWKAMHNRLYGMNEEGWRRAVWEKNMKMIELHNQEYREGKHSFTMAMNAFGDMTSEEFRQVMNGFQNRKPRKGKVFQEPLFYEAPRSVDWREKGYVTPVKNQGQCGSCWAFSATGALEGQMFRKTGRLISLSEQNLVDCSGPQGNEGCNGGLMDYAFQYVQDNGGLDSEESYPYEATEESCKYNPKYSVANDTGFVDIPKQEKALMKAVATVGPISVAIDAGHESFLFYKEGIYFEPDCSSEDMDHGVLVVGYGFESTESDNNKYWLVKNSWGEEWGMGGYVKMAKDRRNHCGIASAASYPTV
Cruzipain, sequence (P25779 whole entry): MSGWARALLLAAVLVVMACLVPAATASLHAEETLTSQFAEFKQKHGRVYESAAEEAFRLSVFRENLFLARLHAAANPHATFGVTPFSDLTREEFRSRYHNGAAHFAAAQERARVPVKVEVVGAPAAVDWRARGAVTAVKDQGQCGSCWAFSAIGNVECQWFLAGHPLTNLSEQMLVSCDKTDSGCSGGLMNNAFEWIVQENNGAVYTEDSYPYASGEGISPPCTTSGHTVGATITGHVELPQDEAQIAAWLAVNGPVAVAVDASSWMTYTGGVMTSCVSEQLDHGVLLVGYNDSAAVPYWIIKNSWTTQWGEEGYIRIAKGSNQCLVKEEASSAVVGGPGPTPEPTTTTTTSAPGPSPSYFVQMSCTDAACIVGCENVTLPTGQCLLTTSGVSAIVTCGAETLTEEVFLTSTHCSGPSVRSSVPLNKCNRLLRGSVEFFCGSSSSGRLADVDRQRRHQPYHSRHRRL
Cruzipain (Trypanosoma cruzi), sequence (P25779 123-467 limits assumed): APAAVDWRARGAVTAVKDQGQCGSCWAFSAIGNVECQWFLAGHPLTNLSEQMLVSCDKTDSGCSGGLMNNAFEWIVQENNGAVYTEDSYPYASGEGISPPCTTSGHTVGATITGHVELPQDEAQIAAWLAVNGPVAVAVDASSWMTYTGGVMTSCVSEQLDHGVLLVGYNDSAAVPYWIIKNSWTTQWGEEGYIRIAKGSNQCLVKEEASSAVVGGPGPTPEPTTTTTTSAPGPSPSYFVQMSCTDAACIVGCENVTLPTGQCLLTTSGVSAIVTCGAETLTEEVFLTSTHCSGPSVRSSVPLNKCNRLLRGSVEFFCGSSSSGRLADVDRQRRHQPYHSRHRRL

Row | inhibition [4] [%] | inhibition [7] [%] | IC50 [8] [µM] | IC50 [9] [µM] | inhibition [10] | inhibition [12] | SMILES | inhibition at 1 µM [1] [%] | inhibition at 50 µM [2] [%] | inhibition at 10 µM [3] [%] | inhibition at 20 min, 100 µM [5] [%] | viability at 96 h, 50 µM [6] [%] | IC50 [11] [µM]
1 | 83 | 55 | 12 | – | – | – | COC(=O)[C@H](CSS(=O)(=O)c1ccccc1)n1cc(C(NCc2ccc3c(c2)OCO3)C2CCCCC2)nn1 (stereo partly drawn) | 3 | 100 | 90 | 55 | 82 | –
2 | 15 | – | – | – | – | – | CCOC(=O)[C@H](Cc1ccccc1)n1cc(C(NCc2ccc3c(c2)OCO3)C2CCCCC2)nn1 (stereo partly drawn) | – | – | – | – | – | –
3 | 41 | – | – | – | – | – | O=C(O)[C@H](CSS(=O)(=O)c1ccccc1)n1cc(C(NCc2ccc3c(c2)OCO3)C2CCCCC2)nn1 (stereo partly drawn) | – | – | – | – | – | –
4 | 28 | – | – | – | – | – | O=C(O)[C@H](CSS(=O)(=O)c1ccccc1)n1cc(C(C2CCCCC2)N2CCc3ccccc3C2)nn1 (stereo partly drawn) | – | – | – | – | – | –
5 | 50 | 7 | – | – | – | – | COc1ccc(COC(=O)[C@H](CSS(=O)(=O)c2ccccc2)n2cc(C(NCc3ccc4c(c3)OCO4)C3CCCCC3)nn2)cc1 (stereo partly drawn) | – | 5 | – | 16 | 97 | –
6 | 86 | 39 | 2.2 | 1.9 | Active | – | O=S(=O)(SC[C@@H](Cc1ccccc1)n1cc(C(NCc2ccc3c(c2)OCO3)C2CCCCC2)nn1)c1ccccc1 (stereo partly drawn) | – | 99.9 | 91 | 13 | 100 | –
7 | – | – | – | – | – | – | O=C(Cn1ccnc1[N+](=O)[O-])NCc1ccccc1 [BENZNIDAZOLE] | – | – | – | – | – | 1.45
8 | 80 | – | 13.7 | – | – | – | CCOC(=O)[C@H](CSS(=O)(=O)c1ccccc1)n1cc(C(C2CCCCC2)N2CCc3ccccc3C2)nn1 (stereo partly drawn) | 0 | 91 | 77 | 8 | 87 | –
9 | 92 | – | 3.2 | – | – | – | CCCCC(NCc1ccc2c(c1)OCO2)c1cn([C@@H](CSS(=O)(=O)c2ccccc2)C(=O)OCC)nn1 (stereo partly drawn) | 10.7 | 97 | 83 | 84 | 63 | –
10 | 33 | – | – | – | – | – | CCC(CC)C(NCc1ccc2c(c1)OCO2)c1cn([C@@H](CSS(=O)(=O)c2ccccc2)C(=O)O)nn1 (stereo partly drawn) | – | – | – | – | – | –
11 | 73 | 20 | 4 | 7.8 | Active | – | CC(C)[C@H](CSS(=O)(=O)c1ccccc1)n1cc(C(NCc2ccc3c(c2)OCO3)C2CCCCC2)nn1 (stereo partly drawn) | – | 100 | 93 | 0 | 75 | –
12 | 90 | – | 9.7 | – | – | – | COC(=O)[C@H](CSS(=O)(=O)c1ccccc1)n1cc(C(NCc2ccc3c(c2)OCO3)C2CCCC2)nn1 (stereo partly drawn) | 2 | 98 | 88 | 23 | 53 | –
13 | 64 | – | 41 | – | – | – | O=C[C@H](Cc1ccccc1)n1cc(C(NCc2ccc3c(c2)OCO3)C2CCCCC2)nn1 (stereo partly drawn) | – | 10 | – | – | – | –
14 | 76 | – | 25 | – | – | – | CCCCC(c1cn([C@@H](CSS(=O)(=O)c2ccccc2)C(=O)OCC)nn1)N1CCc2ccccc2C1 (stereo partly drawn) | – | 91.7 | 31 | 0 | 82 | –
15 | 56 | – | 24 | – | – | – | CCOC(=O)[C@H](CSS(=O)(=O)c1ccccc1)n1cc(C(NCc2ccc3c(c2)OCO3)C(CC)CC)nn1 (stereo partly drawn) | 0 | 97 | 91 | 2 | 70 | –

Row | SMILES | inhibition [4] [%] | inhibition [7] [%] | IC50 [8] [µM] | IC50 [9] [µM] | inhibition [10] | inhibition [12] | inhibition at 1 µM [1] [%] | inhibition at 50 µM [2] [%] | inhibition at 10 µM [3] [%] | inhibition at 20 min, 100 µM [5] [%] | viability at 96 h, 50 µM [6] [%] | IC50 [11] [µM]
16 | CCOC(=O)[C@H](CSS(=O)(=O)c1ccccc1)n1cc(C(NCc2ccc3c(c2)OCO3)C2CCCCC2)nn1 (stereo partly drawn) | 92 | 39 | 2.7 | – | Active; Gradual Recovery Of Enzyme Activity Observed | Active; Showed Near-Zero Slope | 14 | 100 | 96 | 47 | 87 | –
